Experimental data as given in US6203822A, “Gallium-containing compounds for the treatment of infections caused by intracellular pathogens and pathogens causing chronic pulmonary infection” (priority 1996, dated 2001).

Experiments:
[1] = test system: M. tuberculosis strain H37Ra; test: Radiometric BACTEC growth index assay of M. tuberculosis in broth culture, gallium nitrate; format: cell-based; details: BACTEC 12B
Protocol: FIG. 1 provides histograms that illustrate the inhibitory effect of gallium nitrate on M. tuberculosis in broth culture. […] FIG. 1B illustrates the results of experiments to inhibit M. tuberculosis strain H37Ra in broth culture over the range of 0 to 1040 μM concentrations gallium nitrate.
Example 1 details methods for performing the growth index assays of this invention to detect the growth of pathogenic organisms including M. tuberculosis in suspension culture. There are a number of suspension culture methods known in the art. As an example of a suspension assay, M. tuberculosis growth and gallium nitrate inhibition were quantitated using the radiometric BACTEC 460TB system (Becton Dickinson Diagnostic Instrument Systems, Sparks, Md.). […] While this and other examples are directed to the inhibition of Mycobacteria, those skilled in the art will recognize that the assays are readily adaptable to the quantitation of other intracellular bacterial pathogens capable of infecting phagocytic cells. Growth inhibition of parasites or fungi can also be readily assessed by introducing the gallium-containing compounds into cultures of the organisms under standard growth conditions.
Lyophilized M. tuberculosis Erdman strain (ATCC #35801) and H37Ra (ATCC #25177) were reconstituted in pyogen-free water (Sigma, St. Louis, Mo.), plated on 7H11 agar plates, incubated at 37° C. in 5% CO2, 95% air, and after 14 days of culture, harvested and frozen in 7H9 broth at -70° C. […] An aliquot of this suspension was diluted in formalin, counted and diluted to appropriate concentrations for use in experiments. […] The figures illustrate the recorded numbers from bottles on different days which correlate with growth index readings for the various concentrations of gallium nitrate at Day 6.
The BACTEC system (Becton Dickinson, Sparks, Md.) is an instrument to quantitate bacterial growth. […] During quantitation in the BACTEC instrument, the gas is aspirated from the vial and the ^14 CO2 radioactivity is determined on a scale from 0 to 999. […]

[2] = test system: macrophage monolayers (MDMs); test: Gallium toxicity in uninfected MDM monolayers; format: cell-based, human; details: naphthol blue stained nuclei count, read-out: gallium concentration up to which no immediate difference in monolayer density
Protocol: To test the potential toxicity of gallium nitrate on the standard macrophage monolayers (MDMs) used in the assays described in this invention, uninfected MDM monolayers were incubated with various concentrations of gallium nitrate in the range used in the studies described in Examples 2 and 3.
There was no immediate difference in monolayer density between MDM monolayers with and without gallium nitrate treatment up to a gallium concentration of 2 mM. Results were based on counting napthol blue macrophage stained nuclei from the monolayer. These numbers directly correlate with the number of cells present. In most cases the integrity of the MDM monolayer in the presence of gallium was maintained for up to 37 days, equivalent to untreated, uninfected control cultures.

`O=[N+]([O-])[O-].O=[N+]([O-])[O-].O=[N+]([O-])[O-].[Ga+3]` [gallium nitrate] was tested, and the inhibition of growth [1] was “markedly inhibits the growth of M. tuberculosis”, the “concentration with marked inhibition of growth” value ([1]; radiometric) was “approximately 100 μM” and the “concentration with statistically significant inhibition of growth” value ([1]; radiometric) was 16.25 µM. The MNTC [2] was no less than 2 mM.
